Laboratory results taken from patent US9040523B2, “Antifungal 5,6-dihydro-4H-pyrrolo[1,2-α][1,4]-benzodiazepines and 6H-pyrrolo[1,2-α][1,4]benzodiazepines substituted with benzene derivatives” (JANSSEN PHARMACEUTICA NV, priority 2010, dated 2015).

Tested on: not given
Assay: not given
Conditions: not given
Molecule `CC(=O)c1ccc(C2=NCc3c(Cl)cc(Cl)cc3-n3cccc32)cc1` [Compound 22, 1-[4-(7,9-dichloro-6H-pyrrolo[1,2-a][1,4]benzodiazepin-4-yl)phenyl]-ethanone] has a melting point of 250.2 to 254.2 °C.
Work on `CC(=O)c1ccc(C2=NCc3c(F)cc(F)cc3-n3cccc32)cc1` [Compound 24, 1-[4-(7,9-difluoro-6H-pyrrolo[1,2-a][1,4]benzodiazepin-4-yl)phenyl]-ethanone] yielded a melting point of 226.9 to 230 °C.

Tested on: Microsporum canis B68128
Assay: Antifungal activity in vitro (resazurin susceptibility screen), Inf. B
Format: cell-based
Conditions: Microsporum canis, B68128, Microsporum canis B68128; 27 °C, 9 days, resa time 24 hours; read-out: Inf. B pIC50 (converted)
Method in brief: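 Each well was inoculated with 10^3 cfu of fungus onto dried, pre-spotted compound serial dilutions in RPMI-MOPS medium, with fungal growth read by resazurin. Growth was referenced to drug-free culture (100%) and medium-only (0%) controls on each plate.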
Work on `CC(=O)c1cccc(C2=NCc3c(Cl)cccc3-n3cccc32)c1` [Compound 16, 1-[3-(7-chloro-6H-pyrrolo[1,2-a][1,4]benzodiazepin-4-yl)phenyl]-ethanone] yielded an IC50 of 0.316 µM.
With `CC(=O)c1ccc(C2=NCc3c(Cl)cc(Cl)cc3-n3cccc32)cc1` [Compound 22, 1-[4-(7,9-dichloro-6H-pyrrolo[1,2-a][1,4]benzodiazepin-4-yl)phenyl]-ethanone] the IC50 was 0.1 µM.
With `CC(=O)c1ccc(C2=NCc3c(F)cc(F)cc3-n3cccc32)cc1` [Compound 24, 1-[4-(7,9-difluoro-6H-pyrrolo[1,2-a][1,4]benzodiazepin-4-yl)phenyl]-ethanone] the IC50 was 2 µM.

Target: CYP3A4 (Homo sapiens, UniProt P08684)
Sequence (P08684 whole entry): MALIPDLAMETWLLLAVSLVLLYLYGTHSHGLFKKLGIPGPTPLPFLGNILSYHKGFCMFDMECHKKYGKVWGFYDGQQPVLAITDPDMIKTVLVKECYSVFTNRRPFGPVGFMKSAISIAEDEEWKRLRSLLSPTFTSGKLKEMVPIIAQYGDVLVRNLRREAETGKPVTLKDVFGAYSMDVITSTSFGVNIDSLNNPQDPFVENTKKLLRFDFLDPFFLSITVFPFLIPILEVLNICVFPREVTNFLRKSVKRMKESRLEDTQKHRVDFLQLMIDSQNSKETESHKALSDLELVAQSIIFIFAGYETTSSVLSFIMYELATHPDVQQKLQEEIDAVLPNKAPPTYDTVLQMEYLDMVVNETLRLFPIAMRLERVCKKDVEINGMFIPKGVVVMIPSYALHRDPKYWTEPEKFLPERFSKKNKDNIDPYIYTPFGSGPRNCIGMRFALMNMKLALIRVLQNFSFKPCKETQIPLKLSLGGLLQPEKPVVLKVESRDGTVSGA
Assay: Cytochrome P450 inhibition, Protocol A, cDNA expressed proteins, fluorogenic substrates
Format: in vitro ADME
Conditions: % inhibition at 10 μM; substrate BFC; cDNA expressed protein
Method in brief: (§1)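 cDNA-expressed enzymes with fluorogenic substrates (three separate ones for CYP3A4) in sodium/potassium buffer pH 7.4 plus NADPH-generating system. Compounds at 1 nM to 10 μM final, prewarmed 5 min at 37° C, reaction started with NADP+, stopped, then fluorescence measured.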
For `CC(=O)c1cccc(C2=NCc3c(Cl)cccc3-n3cccc32)c1` [Compound 16, 1-[3-(7-chloro-6H-pyrrolo[1,2-a][1,4]benzodiazepin-4-yl)phenyl]-ethanone], the hCYP3A4_BFC_Pct_Inh was 29%.
In the case of `CC(=O)c1ccc(C2=NCc3c(Cl)cc(Cl)cc3-n3cccc32)cc1` [Compound 22, 1-[4-(7,9-dichloro-6H-pyrrolo[1,2-a][1,4]benzodiazepin-4-yl)phenyl]-ethanone], the hCYP3A4_BFC_Pct_Inh is reported as 39%.
With `CC(=O)c1ccc(C2=NCc3c(F)cc(F)cc3-n3cccc32)cc1` [Compound 24, 1-[4-(7,9-difluoro-6H-pyrrolo[1,2-a][1,4]benzodiazepin-4-yl)phenyl]-ethanone] the hCYP3A4_BFC_Pct_Inh was 3%.

Same assay, conditions: % inhibition at 10 μM; substrate BQ; cDNA expressed protein
For `CC(=O)c1cccc(C2=NCc3c(Cl)cccc3-n3cccc32)c1` [Compound 16, 1-[3-(7-chloro-6H-pyrrolo[1,2-a][1,4]benzodiazepin-4-yl)phenyl]-ethanone], the hCYP3A4_BQ_Pct_Inh was 46%.
For `CC(=O)c1ccc(C2=NCc3c(Cl)cc(Cl)cc3-n3cccc32)cc1` [Compound 22, 1-[4-(7,9-dichloro-6H-pyrrolo[1,2-a][1,4]benzodiazepin-4-yl)phenyl]-ethanone], the hCYP3A4_BQ_Pct_Inh was 63%.
`CC(=O)c1ccc(C2=NCc3c(F)cc(F)cc3-n3cccc32)cc1` [Compound 24, 1-[4-(7,9-difluoro-6H-pyrrolo[1,2-a][1,4]benzodiazepin-4-yl)phenyl]-ethanone] gave a hCYP3A4_BQ_Pct_Inh of 39%.

Same assay, conditions: % inhibition at 10 μM; substrate DBF; cDNA expressed protein
Work on `CC(=O)c1cccc(C2=NCc3c(Cl)cccc3-n3cccc32)c1` [Compound 16, 1-[3-(7-chloro-6H-pyrrolo[1,2-a][1,4]benzodiazepin-4-yl)phenyl]-ethanone] yielded a hCYP3A4_DBF_Pct_Inh of 64%.
With `CC(=O)c1ccc(C2=NCc3c(Cl)cc(Cl)cc3-n3cccc32)cc1` [Compound 22, 1-[4-(7,9-dichloro-6H-pyrrolo[1,2-a][1,4]benzodiazepin-4-yl)phenyl]-ethanone] the hCYP3A4_DBF_Pct_Inh was 89%.
In the case of `CC(=O)c1ccc(C2=NCc3c(F)cc(F)cc3-n3cccc32)cc1` [Compound 24, 1-[4-(7,9-difluoro-6H-pyrrolo[1,2-a][1,4]benzodiazepin-4-yl)phenyl]-ethanone], the hCYP3A4_DBF_Pct_Inh is reported as 3%.

Tested on: Cryptococcus neoformans B66663
Assay: Antifungal activity in vitro (resazurin susceptibility screen), Inf. F
Format: cell-based
Conditions: Cryptococcus neoformans, B66663, Cryptococcus neoformans B66663; 37 °C, 24 hours, resa time 4 hours; read-out: Inf. F pIC50 (converted)
Method in brief: (§2)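 Compound serial dilutions were spotted onto test plates, kept in the dark at 4 °C for at most 2 weeks. Cryopreserved isolates were diluted 1/1000 in medium just before use and added at 10^3 cfu per well. Each plate carried drug-free culture as 100% growth and RPMI-MOPS medium alone as 0% growth.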
`CC(=O)c1cccc(C2=NCc3c(Cl)cccc3-n3cccc32)c1` [Compound 16, 1-[3-(7-chloro-6H-pyrrolo[1,2-a][1,4]benzodiazepin-4-yl)phenyl]-ethanone] showed an IC50 of over 63.1 µM.
In the case of `CC(=O)c1ccc(C2=NCc3c(Cl)cc(Cl)cc3-n3cccc32)cc1` [Compound 22, 1-[4-(7,9-dichloro-6H-pyrrolo[1,2-a][1,4]benzodiazepin-4-yl)phenyl]-ethanone], the IC50 is reported as 10 µM.
For `CC(=O)c1ccc(C2=NCc3c(F)cc(F)cc3-n3cccc32)cc1` [Compound 24, 1-[4-(7,9-difluoro-6H-pyrrolo[1,2-a][1,4]benzodiazepin-4-yl)phenyl]-ethanone], the IC50 was 10 µM.

Tested on: not listed separately
Assay: Liver metabolic stability assay, mLM
Format: in vitro ADME
Conditions: mouse liver microsomes, 1 mg protein/ml, 5 μM test compound, 15 min, 37 °C
Description: Liver preparations (microsomal fractions) were obtained from BD Gentest (San Jose, Calif., US). Metabolic stability was assessed using the following assay conditions. […] The mixture was pre-incubated at 37° C. for 5 min and the enzymatic reaction was started by addition of 5 μM test compound. After 0 (control) and 15 minutes (min), the reactions were terminated by addition of […] (500 μl). The precipitated material was removed by centrifugation at 1200 g for 10 min. The supernatant was analysed by LC-MS/MS on a ThermoFinnigan LCQ Deca XP ion-trap mass spectrometer equipped with an atmospheric pressure chemical ionisation source. Calculation of %-compound remaining was as described by Kantharaj et al. 2003 ((Kantharaj E., Tuytelaars A, Proost P E A, Ongel Z, van […] (2003). Simultaneous measurement of drug metabolic stability and identification of metabolites using ion-trap mass spectrometry.
With `CC(=O)c1cccc(C2=NCc3c(Cl)cccc3-n3cccc32)c1` [Compound 16, 1-[3-(7-chloro-6H-pyrrolo[1,2-a][1,4]benzodiazepin-4-yl)phenyl]-ethanone] the “%-compound metabolised Met_mLM” value was 97%.
With `CC(=O)c1ccc(C2=NCc3c(Cl)cc(Cl)cc3-n3cccc32)cc1` [Compound 22, 1-[4-(7,9-dichloro-6H-pyrrolo[1,2-a][1,4]benzodiazepin-4-yl)phenyl]-ethanone] the “%-compound metabolised Met_mLM” value was 37%.

Tested on: Trichophyton rubrum B68183
Assay: Antifungal activity in vitro (resazurin susceptibility screen), Inf. C
Format: cell-based
Conditions: Trichophyton rubrum B68183; 27 °C, 7 days, resa time 24 hours; read-out: Inf. C pIC50 (converted)
Method in brief: as §2
In the case of `CC(=O)c1cccc(C2=NCc3c(Cl)cccc3-n3cccc32)c1` [Compound 16, 1-[3-(7-chloro-6H-pyrrolo[1,2-a][1,4]benzodiazepin-4-yl)phenyl]-ethanone], the IC50 is reported as 0.0501 µM.
With `CC(=O)c1ccc(C2=NCc3c(Cl)cc(Cl)cc3-n3cccc32)cc1` [Compound 22, 1-[4-(7,9-dichloro-6H-pyrrolo[1,2-a][1,4]benzodiazepin-4-yl)phenyl]-ethanone] the IC50 was 0.0501 µM.
In the case of `CC(=O)c1ccc(C2=NCc3c(F)cc(F)cc3-n3cccc32)cc1` [Compound 24, 1-[4-(7,9-difluoro-6H-pyrrolo[1,2-a][1,4]benzodiazepin-4-yl)phenyl]-ethanone], the IC50 is reported as 0.126 µM.

Target: CYP2C9 (Homo sapiens, UniProt P11712)
Sequence (P11712 whole entry): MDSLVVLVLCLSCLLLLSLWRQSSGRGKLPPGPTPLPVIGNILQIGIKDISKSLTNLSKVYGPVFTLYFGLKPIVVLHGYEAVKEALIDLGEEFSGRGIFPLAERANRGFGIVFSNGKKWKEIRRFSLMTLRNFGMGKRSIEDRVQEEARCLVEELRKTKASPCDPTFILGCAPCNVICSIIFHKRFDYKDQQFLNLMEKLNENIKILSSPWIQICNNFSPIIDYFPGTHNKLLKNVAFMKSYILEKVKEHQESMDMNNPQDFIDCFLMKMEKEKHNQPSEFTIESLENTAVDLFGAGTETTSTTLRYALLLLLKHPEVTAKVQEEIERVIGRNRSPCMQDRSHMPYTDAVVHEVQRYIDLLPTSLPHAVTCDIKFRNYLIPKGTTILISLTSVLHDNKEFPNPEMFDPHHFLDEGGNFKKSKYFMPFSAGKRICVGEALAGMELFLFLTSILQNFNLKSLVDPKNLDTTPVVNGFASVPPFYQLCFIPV
Assay: Cytochrome P450 inhibition, Protocol A, cDNA expressed proteins, fluorogenic substrate
Format: in vitro ADME
Conditions: % inhibition at 10 μM; substrate MFC; cDNA expressed protein
Method in brief: as §1
For `CC(=O)c1cccc(C2=NCc3c(Cl)cccc3-n3cccc32)c1` [Compound 16, 1-[3-(7-chloro-6H-pyrrolo[1,2-a][1,4]benzodiazepin-4-yl)phenyl]-ethanone], the hCYP2C9_MFC_Pct_Inh was 84%.
`CC(=O)c1ccc(C2=NCc3c(Cl)cc(Cl)cc3-n3cccc32)cc1` [Compound 22, 1-[4-(7,9-dichloro-6H-pyrrolo[1,2-a][1,4]benzodiazepin-4-yl)phenyl]-ethanone] gave a hCYP2C9_MFC_Pct_Inh of 85%.
For `CC(=O)c1ccc(C2=NCc3c(F)cc(F)cc3-n3cccc32)cc1` [Compound 24, 1-[4-(7,9-difluoro-6H-pyrrolo[1,2-a][1,4]benzodiazepin-4-yl)phenyl]-ethanone], the hCYP2C9_MFC_Pct_Inh was 54%.

Target: T1, CYP1A2 (Homo sapiens, UniProt P05177)
T1 sequence (P05177 1-516): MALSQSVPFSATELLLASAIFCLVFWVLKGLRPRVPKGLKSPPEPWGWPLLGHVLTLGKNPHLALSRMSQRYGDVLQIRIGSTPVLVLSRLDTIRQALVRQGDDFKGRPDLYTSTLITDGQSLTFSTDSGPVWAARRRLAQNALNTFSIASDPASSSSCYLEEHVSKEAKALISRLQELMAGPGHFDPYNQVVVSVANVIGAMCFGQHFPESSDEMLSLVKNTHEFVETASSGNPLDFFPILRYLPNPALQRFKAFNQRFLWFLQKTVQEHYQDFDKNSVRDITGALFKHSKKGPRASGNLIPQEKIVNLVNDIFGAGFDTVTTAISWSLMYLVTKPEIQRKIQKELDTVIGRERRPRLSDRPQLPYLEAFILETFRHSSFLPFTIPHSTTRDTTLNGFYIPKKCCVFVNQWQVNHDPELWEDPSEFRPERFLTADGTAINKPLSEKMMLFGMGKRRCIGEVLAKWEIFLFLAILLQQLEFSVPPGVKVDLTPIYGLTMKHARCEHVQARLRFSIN
Assay: as above
Format: in vitro ADME
Conditions: % inhibition at 10 μM; substrate CEC; cDNA expressed protein
Method in brief: as §1
With `CC(=O)c1cccc(C2=NCc3c(Cl)cccc3-n3cccc32)c1` [Compound 16, 1-[3-(7-chloro-6H-pyrrolo[1,2-a][1,4]benzodiazepin-4-yl)phenyl]-ethanone] the hCYP1A2_CEC_Pct_Inh was 55%.
Molecule `CC(=O)c1ccc(C2=NCc3c(Cl)cc(Cl)cc3-n3cccc32)cc1` [Compound 22, 1-[4-(7,9-dichloro-6H-pyrrolo[1,2-a][1,4]benzodiazepin-4-yl)phenyl]-ethanone] has a hCYP1A2_CEC_Pct_Inh of 20%.
For `CC(=O)c1ccc(C2=NCc3c(F)cc(F)cc3-n3cccc32)cc1` [Compound 24, 1-[4-(7,9-difluoro-6H-pyrrolo[1,2-a][1,4]benzodiazepin-4-yl)phenyl]-ethanone], the hCYP1A2_CEC_Pct_Inh was 18%.

Tested on: Scedosporium apiospermum IHEM3817
Assay: Antifungal activity in vitro (resazurin susceptibility screen), Inf. H
Format: cell-based
Conditions: 37 °C, 48 hours, resa time 17 hours, read-out: Inf. H pIC50 (converted)
Description: The standard susceptibility screen was performed in 96-well plates (U-bottom, Greiner Bio-One). […] These serial dilutions (10 n1) were then spotted onto test-plates that could be stored in the dark at 4° C. for a maximum period of 2 weeks. […] The different fungal species/isolates (Table 3a) were cryopreserved and 1/1000 diluted in medium just prior to use. A standard inoculum of 200 μl containing 10^3 colony-forming unit (cfu) was then added to each well. A positive control (100% growth=fungal culture without antifungal) and a negative control (0% growth ═RPMI-MOPS medium) were included on each plate. […] [table]
`CC(=O)c1cccc(C2=NCc3c(Cl)cccc3-n3cccc32)c1` [Compound 16, 1-[3-(7-chloro-6H-pyrrolo[1,2-a][1,4]benzodiazepin-4-yl)phenyl]-ethanone] gave an IC50 of over 63.1 µM.
In the case of `CC(=O)c1ccc(C2=NCc3c(Cl)cc(Cl)cc3-n3cccc32)cc1` [Compound 22, 1-[4-(7,9-dichloro-6H-pyrrolo[1,2-a][1,4]benzodiazepin-4-yl)phenyl]-ethanone], the IC50 is reported as 50.1 µM.
`CC(=O)c1ccc(C2=NCc3c(F)cc(F)cc3-n3cccc32)cc1` [Compound 24, 1-[4-(7,9-difluoro-6H-pyrrolo[1,2-a][1,4]benzodiazepin-4-yl)phenyl]-ethanone] showed an IC50 of 7.94 µM.
